# Data published in patent US9615577B2, “Herbicidally active cyclic dione compounds, or derivatives therefor, substituted by a phenyl which has an alkynyl-containing substituent” (Syngenta Limited, priority 2012, dated 2017).
# Assays:
# Assay in all cases: Test 1B glasshouse assay for herbicidal activity, post-emergence
# Type in all cases: in vivo
# [1] = tested on: Lolium perenne (LOLPE); conditions: 360 h
# Method: (§1) Seeds of a variety of monocotyledonous and dicotyledonous test plants are sown in standard soil in pots. The plants are cultivated for one day (for pre-emergence) or for about 12 days (range=10-13 days) (for post-emergence) under controlled conditions in a glasshouse (warm climate species at 24/18° C., cool climate species at 20/16° C., both at day/night; 16 hours light; 65% humidity).
# (§2) An “instant formulation”, known as the “IF50”, containing 50 g/liter (i.e. 5% w/v) of the “technical” (i.e. unformulated) active ingredient is prepared by dissolving the active ingredient in a mixture of organic solvents and emulsifier, details of which are provided in the Table below. This IF50 is then mixed with a small, variable amount of acetone to aid dissolution, before addition of a 0.2% v/v aqueous solution of the adjuvant X-77 (which is a mixture of alkyl aryl polyoxyethylene glycols and free fatty acids in isopropanol, CAS Registry number 11097-66-8), as the aqueous diluent, to form an aqueous spray solution which contains a predetermined concentration of the active ingredient (which varies depending on the application rate of the active ingredient to the plants) and 0.2% v/v of the adjuvant X-77. This aqueous spray solution is then sprayed onto the plants, after one day's cultivation (for pre-emergence) or after about 12 days' cultivation (for post-emergence).
# (§3) The test plants are then grown on, in a glasshouse (greenhouse) under controlled conditions (at either 24/18° C. or 20/16° C. (day/night) as mentioned above; 16 hours light; 65% humidity) and are watered twice daily. Either 15 days after application of the herbicide (15 DAA) (for post-emergence), or 20 days after application of the herbicide (20 DAA) (for pre-emergence), the test plants are evaluated visually, and an assessed percentage phytotoxicity score is given for each herbicidal application on each plant species (where 100%=total damage to plant; 0%=no damage to plant).
# (§4) Cool climate (“cool season”) grassy monocotyledonous weeds: Alopecurus myosuroides (ALOMY), Avena fatua (AVEFA), Lolium perenne (LOLPE).
# [2] = tested on: Avena fatua (AVEFA); conditions: 360 h
# Method: as §1, §2, §3, §4
# [3] = tested on: Alopecurus myosuroides (ALOMY); conditions: 360 h
# Method: as §1, §2, §3, §4
# [4] = tested on: Digitaria sanguinalis (DIGSA); conditions: 360 h
# Method: as §1, §2, §3
# (§5) Warm climate (“warm season”) grassy monocotyledonous weeds: Setaria faberi (SETFA), SORVU (Sorghum bicolor (L.) Moench ssp. Bicolor, or Sorghum vulgare Pers.), Digitaria sanguinalis (DIGSA), Echinochloa crus-galli (ECHCG), and Brachiaria plantaginea (BRAPL).
# [5] = tested on: Brachiaria plantaginea (BRAPL); conditions: Urochloa plantaginea
# Method: as §1, §2, §3, §5
# [6] = tested on: Setaria faberi (SETFA); conditions: 360 h
# Method: as §1, §2, §3, §5
# [7] = tested on: Brassica napus (BRSNN, rape); conditions: 360 h
# Method: as §1, §2, §3
# (§6) Cool climate crop plants: Triticum aestivum (TRZAW, winter wheat), Brassica napus (BRSNN, rape, also called oilseed rape or rapeseed), Beta vulgaris (BEAVA, sugar beet).
# [8] = tested on: Triticum aestivum (TRZAW, winter wheat); conditions: 360 h
# Method: as §1, §2, §3, §6
# [9] = tested on: Glycine max (GLXMA, soybean); conditions: 360 h
# Method: as §1, §2, §3
# Warm climate crop plants: Glycine max (GLXMA, soybean).
# [10] = tested on: Echinochloa crus-galli (ECHCG); conditions: Echinochloa crus-galli
# Method: as §1, §2, §3, §5
# Note: The herbicidal activity data (e.g. post-emergence) shown above in Biological Example 1B for Comparator compounds X-9 and X-10 is thought likely to have been measured some years ago, probably using a variant of the above-described test method. Also, for the post-emergence activity of X-9 and X-10 it is not currently known exactly how many days after application of the herbicide the phytotoxicity on the plants was measured.
# [11] = tested on: SORVU (Sorghum bicolor (L.) Moench ssp. Bicolor, or Sorghum vulgare Pers.); conditions: 360 h, 250 g/ha application rate
# Method: as §1, §2, §3, §5
# [12] = tested on: Beta vulgaris (BEAVA, sugar beet); conditions: 360 h, 250 g/ha application rate
# Method: as §1, §2, §3, §6
smiles,measurement,setting,value
"Cc1cc(C)c(C2C(=O)C3CCC(C3)C2=O)c(C)c1 (centres unmarked) [Compound X-9, reference compound]",pest or weed control at 60 g/ha,[1]; 60 g/ha application rate,0%
same,pest or weed control at 125 g/ha,[1]; 125 g/ha application rate,40%
same,pest or weed control at 60 g/ha,[2]; 60 g/ha application rate,0%
same,pest or weed control at 125 g/ha,[2]; 125 g/ha application rate,0%
same,pest or weed control at 60 g/ha,[3]; 60 g/ha application rate,20%
same,pest or weed control at 125 g/ha,[3]; 125 g/ha application rate,40%
same,pest or weed control at 60 g/ha,[4]; 60 g/ha application rate,70%
same,pest or weed control at 125 g/ha,[4]; 125 g/ha application rate,80%
same,pest or weed control at 60 g/ha,[5]; 60 g/ha application rate,80%
same,pest or weed control at 125 g/ha,[5]; 125 g/ha application rate,80%
same,pest or weed control at 60 g/ha,[6]; 60 g/ha application rate,80%
same,pest or weed control at 125 g/ha,[6]; 125 g/ha application rate,80%
same,plant injury at 60 g/ha,[7]; 60 g/ha application rate,0%
same,plant injury at 125 g/ha,[7]; 125 g/ha application rate,20%
same,plant injury at 60 g/ha,[8]; 60 g/ha application rate,0%
same,plant injury at 125 g/ha,[8]; 125 g/ha application rate,0%
same,plant injury at 60 g/ha,[9]; 60 g/ha application rate,0%
same,plant injury at 125 g/ha,[9]; 125 g/ha application rate,0%
same,pest or weed control at 60 g/ha,[10]; 60 g/ha application rate,40%
same,pest or weed control at 125 g/ha,[10]; 125 g/ha application rate,60%
CC#Cc1cc(Cl)c(C2C(=O)C3CCC(C3)C2=O)c(OCCOC)c1 (centres unmarked) [Compound A-18],pest or weed control at 250 g/ha,[1]; 250 g/ha application rate,0%
same,pest or weed control at 250 g/ha,[2]; 250 g/ha application rate,20%
same,pest or weed control at 250 g/ha,[3]; 250 g/ha application rate,0%
same,pest or weed control at 250 g/ha,[4]; 250 g/ha application rate,90%
same,pest or weed control at 250 g/ha,[11],100%
same,pest or weed control at 250 g/ha,[5]; 250 g/ha application rate,70%
same,pest or weed control at 250 g/ha,[6]; 250 g/ha application rate,80%
same,plant injury at 250 g/ha,[12],30%
same,plant injury at 250 g/ha,[7]; 250 g/ha application rate,30%
same,plant injury at 250 g/ha,[8]; 250 g/ha application rate,10%
same,plant injury at 250 g/ha,[9]; 250 g/ha application rate,20%
same,pest or weed control at 250 g/ha,[10]; 250 g/ha application rate,90%
